Assay results published in patent US20250084063A1 (Incyte Corporation, priority 2023, published 2025).

Legend:
[1] = target: T1, MRGPRX2 (Homo sapiens, UniProt Q96LB1); assay: MRGPRX2 FLIPR calcium mobilization assay; type: cell-based; parameters: host or cells: CHO-K1; details: CHO-K1 cells stably expressing human MRGPRX2; Ca2+ release, agonist Cortistatin-14 at EC80
T1 sequence (Q96LB1 1-330): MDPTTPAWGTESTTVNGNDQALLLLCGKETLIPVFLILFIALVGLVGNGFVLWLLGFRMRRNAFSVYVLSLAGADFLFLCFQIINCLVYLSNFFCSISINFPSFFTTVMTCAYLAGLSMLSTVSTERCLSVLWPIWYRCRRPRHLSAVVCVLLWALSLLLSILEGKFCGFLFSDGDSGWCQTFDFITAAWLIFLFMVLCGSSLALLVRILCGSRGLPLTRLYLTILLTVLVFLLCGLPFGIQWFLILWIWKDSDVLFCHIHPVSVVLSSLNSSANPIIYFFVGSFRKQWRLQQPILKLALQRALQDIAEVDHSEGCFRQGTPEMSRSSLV
Experimental: Example A. MRGPRX2 FLIPR Calcium Mobilization Assay
Chinese hamster ovary (CHO-K1) cells stably expressing human MRGPRX2 were purchased from Genescript (Piscataway, NJ). The cells were maintained in culture medium (Ham's F-12K) containing 10% (v/v) FBS, 200 μg/mL Zeocin, 100 units/mL penicillin G and 100 μg/mL streptomycin (Life Technologies, Carlsbad, CA). For the assay, the cells were harvested and resuspended with culture medium without Zeocin before plating at 8000 cells per well in 20 μL in 384-well black clear bottom cell culture plates (VWR, Radnor, PA). After 24 h culture at 37° C. and 5% CO2, the cells were loaded with 20 μL/well of calcium dye (FLIPR Calcium 6 Assay Kit, Molecular Devices, San Jose, CA) diluted in loading buffer (1×Hank's Balanced Salt Solution (HBSS), 5 mM probenecid, 20 mM 4-(2-hydroxyethyl)-1-piperazineethanesulfonic acid (HEPES), pH 7.4, VWR, Radnor, PA) followed with 45 min incubation at 37° C. and 40 min at room temperature in the dark. Cells were then treated with the addition of 10 uL/well test compounds with a range of increasing concentrations diluted in the assay buffer (1×HBSS, 20 mM HEPES, pH 7.4, VWR, Radnor, PA) with FLIPR Penta (Molecular Devices. San Jose, CA) and incubated for 30 min. at room temperature. Ca^2+ release was measured with FLIPR Penta with 10 seconds basal fluorescence measurement, then 12.5 μL of 5× agonist Cortistatin-14 (Tocris, Minneapolis, MN) at final concentration corresponding to the EC80 were added followed with continued fluorescence signal monitoring for an additional 110 seconds. The base line adjusted (median of first 10s base line) max value of the Relative Fluorescence Unit (RFU) was plotted against compound concentrations. Wells with no compound were served as the positive controls, and wells with high concentration of reference antagonist were used as negative controls. IC50 curves were globally fitted with 3- or 4-parameter Hill equation in a Genedata Screener (Genedata Basel, Switzerland).

[2] = target: T1, MRGPRX2; assay: MRGPRX2 IP1 HTRF assay; type: cell-based; parameters: host or cells: CHO-K1; details: CHO-K1 cells stably expressing human MRGPRX2; IP1 accumulation, agonist Cortistatin 14 1 μM
From the text: Example B: MRGPRX2 IP1 HTRF Assay
This assay measures compound inhibition of myo-Inositol 1 phosphate (IP1) accumulation in CHO-K1 cells. Chinese hamster ovary (CHO-K1) cells stably expressing human MRGPRX2 were purchased from GenScript (Piscataway, NJ).
For the HTRF IP1 determination, an IP-One GqKit (Perkin Elmer Cisbio, Waltham, MA), which includes all reagents and buffers in this protocol, was used. The cells were maintained in culture medium (Ham's F-12K) containing 10% (v/v) FBS, and 200 μg/mL Zeocin. For the assay, the cells were harvested and resuspended in culture medium with 2% FBS and without Zeocin, then were passed through a 40 μm filter. Cells were added at 20000 cells in a 5 μL/well to a 384-well white small volume cell culture plate (Greiner VWR, Radnor, PA) which contained 50 nL/well of test compound serially diluted at a selected concentration range in DMSO. 5 μL/well of prepared 2× Stimulation Buffer2 was then added to plates and was incubated at 37° C. with 5% CO2 for 1 h. 5 μL/well of agonist Cortistatin 14 (Bio-TechneR&D Systems, Minneapolis, MN) in 1× Stimulation Buffer 2, for a 1 μM final concentration, was then added to plates and incubated at 37° C. with 5% CO2 for 1 h. 6 μL/well of 1:20 diluted Detection Reagent Mix (d2 and Cryptate) was added to the plates and incubated for 1 h in the dark. Plates were read on the PHERAstar microplate reader (BMG Labtech Cary, NC) to determine the HTRF ratio of the acceptor and donor emission signals. The IP1 concentrations were calculated from a standard curve following the IP-One GQ kit instructions. Wells with DMSO only and wells with high concentration of reference antagonist were used as controls for normalization. Compound IC50 curves were globally fitted with 3- or 4-parameter Hill equation in a Genedata Screener (Genedata Basel, Switzerland).

Row | SMILES | IC50 [1] [µM] | IC50 [2] [µM]
1 | CNC1CCC(CNc2cc(C(F)(F)F)nc3ccc(Cl)cc23)(c2ccccc2)C1 (centres unmarked) [Example 55, 6-Chloro-N-((3-(methylamino)-1-phenylcyclopentyl)methyl)-2 (trifluoromethyl)quinolin-4-amine] | 0.0001 to 0.1 | 0.0001 to 0.1
2 | Cc1cc(C)n(C2(CNc3cc(C(F)(F)F)nc4ccc(Cl)cc34)CN(C(N)=O)C2)n1 [Example 105, 3-(((6-Chloro-2-(trifluoromethyl)quinolin-4-yl)amino)methyl)-3-(3,5-dimethyl-1H-pyrazol-1-yl)azetidine-1-carboxamide] |  | 0.1 to 1
3 | CNC(=O)N1CC(CNc2cc(C(F)(F)F)nc3ccc(Cl)cc23)(c2ccccc2)C1 [Example 48, 3-(((6-Chloro-2-(trifluoromethyl)quinolin-4-yl)amino)methyl)-N-methyl-3-phenylazetidine-1-carboxamide] | 0.0001 to 0.1 | 0.0001 to 0.1
4 | N#Cc1ccn(C2(CNc3cc(C(F)(F)F)nc4ccc(Cl)cc34)CN(C(N)=O)C2)n1 [Example 104, 3-(((6-Chloro-2-(trifluoromethyl)quinolin-4-yl)amino)methyl)-3-(3-cyano-1H-pyrazol-1-yl)azetidine-1-carboxamide] | 0.0001 to 0.1 | 0.0001 to 0.1
5 | N#Cc1ccc2nc(C(F)(F)F)cc(NCC3(c4ccc(F)cn4)CN(C(N)=O)C3)c2c1 [Example 58, 3-(((6-Cyano-2-(trifluoromethyl)quinolin-4-yl)amino)methyl)-3-(5-fluoropyridin-2-yl)azetidine-1-carboxamide] | 0.1 to 1 | 0.1 to 1
6 | N#Cc1cccc2c(NCC3(c4ccc(F)cn4)CN(C(N)=O)C3)cc(C(F)(F)F)nc12 [Example 64, 3-(((8-Cyano-2-(trifluoromethyl)quinolin-4-yl)amino)methyl)-3-(5-fluoropyridin-2-yl)azetidine-1-carboxamide] | > 1 | 
7 | NS(=O)(=O)N1CC(CNc2cc(C(F)(F)F)nc3ccc(Cl)cc23)(n2cc(Cl)cn2)C1 [Example 36, 3-(4-Chloro-1H-pyrazol-1-yl)-3-(((6-chloro-2-(trifluoromethyl)quinolin-4-yl)amino)methyl)azetidine-1-sulfonamide] | 0.0001 to 0.1 | 0.0001 to 0.1
8 | CN1CCC(CNc2cc(C(F)(F)F)nc3ccc(Cl)cc23)(c2ccccc2)CC1 [Example 15, 6-Chloro-N-((1-methyl-4-phenylpiperidin-4-yl)methyl)-2-(trifluoromethyl)quinolin-4-amine] | 0.0001 to 0.1 | 0.0001 to 0.1
9 | N#Cc1cnn(C2(CNc3cc(C(F)(F)F)nc4ccc(Cl)cc34)CN(C(N)=O)C2)c1 [Example 101, 3-(((6-Chloro-2-(trifluoromethyl)quinolin-4-yl)amino)methyl)-3-(4-cyano-1H-pyrazol-1-yl)azetidine-1-carboxamide] | 0.0001 to 0.1 | 0.0001 to 0.1
10 | Cc1ccc2nc(C(F)(F)F)cc(NCC3(c4ccc(F)cn4)CN(C(N)=O)C3)c2c1 [Example 56, 3-(5-Fluoropyridin-2-yl)-3-(((6-methyl-2-(trifluoromethyl)quinolin-4-yl)amino)methyl)azetidine-1-carboxamide] | 0.0001 to 0.1 | 0.1 to 1
11 | Cc1ccn(C2(CNc3cc(C(F)(F)F)nc4ccc(Cl)cc34)CN(C(N)=O)C2)n1 [Example 103, 3-(((6-Chloro-2-(trifluoromethyl)quinolin-4-yl)amino)methyl)-3-(3-methyl-1H-pyrazol-1-yl)azetidine-1-carboxamide] | 0.0001 to 0.1 | 0.0001 to 0.1
12 | Fc1ccc(C2(CNc3cc(C(F)(F)F)nc4ccc(Cl)cc34)COC2)cc1 [Example 50, 6-Chloro-N-((3-(4-fluorophenyl)oxetan-3-yl)methyl)-2-(trifluoromethyl)quinolin-4-amine] | 0.0001 to 0.1 | 0.0001 to 0.1
13 | NC(=O)N1CCC(CNc2cc(C(F)(F)F)nc3ccc(Cl)cc23)(c2ccccc2)CC1 [Example 13, 4-(((6-Chloro-2-(trifluoromethyl)quinolin-4-yl)amino)methyl)-4-phenylpiperidine-1-carboxamide] | 0.0001 to 0.1 | 0.0001 to 0.1
14 | NC(=O)N1CC(CNc2cc(C(F)(F)F)nc3ccc(Cl)cc23)(c2ccnc(Cl)c2)C1 [Example 42, 3-(((6-Chloro-2-(trifluoromethyl)quinolin-4-yl)amino)methyl)-3-(2-chloropyridin-4-yl)azetidine-1-carboxamide] | 0.0001 to 0.1 | 0.0001 to 0.1
15 | NS(=O)(=O)N1CC(CNc2cc(C(F)(F)F)nc3ccc(Cl)cc23)(c2ccnc(Cl)c2)C1 [Example 35, 3-(((6-Chloro-2-(trifluoromethyl)quinolin-4-yl)amino)methyl)-3-(2-chloropyridin-4-yl)azetidine-1-sulfonamide] | 0.0001 to 0.1 | 0.0001 to 0.1
16 | CNC(=O)N1CC(CNc2cc(C(F)(F)F)nc3ccc(Cl)cc23)(c2ccc(F)cn2)C1 [Example 51, 3-(((6-Chloro-2-(trifluoromethyl)quinolin-4-yl)amino)methyl)-3-(5-fluoropyridin-2-yl)-N-methylazetidine-1-carboxamide] | 0.0001 to 0.1 | 0.0001 to 0.1
17 | NC(=O)N1CC(CNc2cc(C(F)(F)F)nc3cc(Cl)ccc23)(c2ccc(F)cn2)C1 [Example 57, 3-(((7-Chloro-2-(trifluoromethyl)quinolin-4-yl)amino)methyl)-3-(5-fluoropyridin-2-yl)azetidine-1-carboxamide] | 0.0001 to 0.1 | 
18 | NC(=O)N1CC(CNc2cc(C(F)(F)F)nc3ccc(Cl)cc23)(c2ccccc2)C1 [Example 40, 3-(((6-Chloro-2-(trifluoromethyl)quinolin-4-yl)amino)methyl)-3-phenylazetidine-1-carboxamide] | 0.0001 to 0.1 | 0.0001 to 0.1
19 | NS(=O)(=O)N1CC(CNc2cc(C(F)(F)F)nc3ccc(Cl)cc23)(c2ccc(Cl)cc2)C1 [Example 33, 3-(((6-Chloro-2-(trifluoromethyl)quinolin-4-yl)amino)methyl)-3-(4-chlorophenyl)azetidine-1-sulfonamide] | 0.0001 to 0.1 | 0.0001 to 0.1
20 | NC(=O)N1CC(CNc2cc(C(F)(F)F)nc3ccc(Cl)cc23)(c2ccc(F)cc2)C1 [Example 39, 3-(((6-Chloro-2-(trifluoromethyl)quinolin-4-yl)amino)methyl)-3-(4-fluorophenyl)azetidine-1-carboxamide] | 0.0001 to 0.1 | 0.0001 to 0.1
21 | Cc1ccc2c(NCC3(c4ccc(F)cn4)CN(C(N)=O)C3)cc(C(F)(F)F)nc2c1 [Example 61, 3-(5-Fluoropyridin-2-yl)-3-(((7-methyl-2-(trifluoromethyl)quinolin-4-yl)amino)methyl)azetidine-1-carboxamide] | > 1 | > 1
22 | NS(=O)(=O)N1CC(CNc2cc(C(F)(F)F)nc3ccc(Cl)cc23)(c2ccc(F)c(F)c2)C1 [Example 34, 3-(((6-Chloro-2-(trifluoromethyl)quinolin-4-yl)amino)methyl)-3-(3,4-difluorophenyl)azetidine-1-sulfonamide] | 0.0001 to 0.1 | 0.0001 to 0.1
